Results: patent US11969397B2, “Composition for preventing and treating transplant rejection or transplant rejection diseases, comprising novel compound and calcineurin inhibitor” (THE CATHOLIC UNIVERSITY OF KOREA INDUSTRY-ACADEMIC …, priority 2018, dated 2024)

Key:
pathogenic Th17 cells = assay: Inhibition of pathogenic Th17 cells / IL-17 in in vitro allogenic model (mouse cells); assay type: cell-based; conditions: 4 days, anti-CD3 0.1 μg/ml, SD282 50, 250, 500 μM, FK506 1, 5 nM, combination FK506 1, 5 nM + SD282 250 μM
Description: (§1) CD4+ T cells derived from a normal recipient (Balb/c, responder) (2×10^5 cells) were injected into each well of a 96-well round bottom plate, in vitro. Thereafter, for syngenic transplantation, normal recipient-derived T cell-removed splenocytes (2×10^5 cells), which had been irradiated with radiation, were added to each of the wells, followed by culturing under mixing. For allogenic transplantation, donor (C57BL/6, stimulator)-derived T cell-removed splenocytes were added to each of the wells, followed by culturing under mixing.
The T cell response regulates the activity of Th17 (T helper 17 cell)/IL-17 (Interleukin 17) and IL-17 is classified as an inflammatory cytokine. […] We also evaluated inhibitory activity against inflammatory cytokines according to the treatments with SD282 and FK506 alone or in combination. The untreated syngenic group and the untreated allogenic group of Example 1-1 were used as controls. The allogenic models were treated with 50, 250 and 500 μM of SD282 alone or 1 and 5 nM of FK506 alone. And, FK506 (1 and 5 nM) and SD282 (250 μM) were treated in combination, respectively. After the treatments, each group was cultured for 4 days and then stimulated with anti-CD3 (0.1 μg/ml). The inhibitory efficacy against IL-17+CD4+ T cells and IL-17 was evaluated by analyzing the cultured Th17 cells according to the ELISA method; and the proliferation of Fox3+ Treg cells was evaluated through the analysis of Treg cells.

Foxp3 Treg cells = assay: Treg activity under Th17 differentiation condition in in vitro allogenic model (mouse cells); assay type: cell-based; conditions: 4 days, SD282 20 and 500 μM, FK506 1 and 5 nM, combination FK506 1, 5 nM + SD282 250 μM
Description: as §1
The allogenic models of Example 1-1 were treated with 20 and 500 μM of SD282 alone or 1 and 5 nM of FK506 alone. And, FK506 (1 and 5 nM) and SD282 (250 μM) were treated in combination, respectively. The isolated T cells were cultured for 4 days under the condition of Th17 cell differentiation so as to induce the differentiation to Th17 cells.

[1] = tested on: allogenic T cells (normal human PBMCs); assay: T cell proliferation in normal human PBMCs (MLR, CFSE); assay type: cell-based; parameters: T cell proliferation (FIG. 13a): dose or concentration left out as unconfirmed; conditions: for proliferation of allogenic T cells (FIG. 13b): 4 days, FK506 1 and 5 nM, SD282 alone, combination FK506 1, 5 nM + SD282 250 μM
Description: In order to evaluate the T cell proliferations according to the treatment with SD282 alone, FK506 alone, or in combination thereof in normal human PBMCs (peripheral blood mononuclear cells, PBMCs), mixed leukocyte reaction (MLR) and CFSE (carboxyfluorescein succinimidyl ester) staining were performed. An untreated syngenic group and an untreated allogenic group were used as controls. […] And, FK506 (1 and 5 nM) and SD282 (250 μM) were treated in combination, respectively. After the treatments, each group was cultured for 4 days and then alloresponses were evaluated by observing the T cell proliferations of the cultured cells, according to the 3H-thymidine incorporation method or the flow cytometry method.

allogenic T cells = assay: T cell proliferation in in vitro allogenic transplantation model (mouse cells); assay type: cell-based; conditions: cultured 4 days; for T cell proliferation (3H-thymidine incorporation, FIG. 1): SD282 alone 250 μM or more, FK506 alone 1 and 5 nM, combination FK506 1 and 5 nM + SD282 250 μM; for T cell proliferation (flow cytometry, FIG. 2): SD282 alone, FK506 alone or combination
Description: as §1
In order to evaluate T cell proliferations according to the treatment with SD282 alone, FK506 alone or in combination thereof, the untreated syngenic group and the untreated allogenic group of Example 1-1 were used as controls. The allogenic model was treated with 50, 250 and 500 μM of SD282 alone or 1 and 5 nM of FK506 alone. And, FK506 (1 and 5 nM) and SD282 (250 μM) were treated in combination, respectively. After the treatments, each group was cultured for 4 days and then alloresponses were evaluated by observing the T cell proliferations of the cultured cells, according to the 3H-thymidine incorporation method, the CFSE assay method, or the flow cytometry method.
In addition, in order to evaluate the synergistic effect according to the treatment of SD282 and FK506 in combination, the Combination Index (CI) value (drug treatment) was calculated. The CI value was obtained by the following equation. A value of 1 or less means that there is a synergistic effect between the combination of two drugs, and a value of 1 or more means that there is an antagonistic effect between the combination of two drugs.

IL-17, IFN-γ and TNF-α = assay: Inflammatory cytokines in normal human PBMCs under allo-response (ELISA); assay type: cell-based; conditions: allogenic, 4 days, compared to the group treated with FK506 alone
Description: In order to evaluate the inhibitions against the activities of inflammatory cytokines according to the treatment with SD282 alone, FK506 alone, or in combination thereof in normal human peripheral blood cells (PBMCs), an untreated syngenic group and an untreated allogenic group were used as controls. Allogenic models were treated with 5, 250 and 500 μM of SD282 alone or 1 and 5 nM of FK506 alone. And, 1 and 5 nM of FK506 and 250 μM SD282 were treated in combination, respectively. After the treatments, each group was cultured for 4 days and then the inhibitory effects against IL-17, IFN-γ and TNF-α in the cultured cells was evaluated according to the ELISA method, so as to evaluate alloresponses.

[2] = tested on: PBMCs of a liver-transplanted patient; assay: Microarray / KEGG pathway and gene regulation in PBMCs of a liver-transplanted patient; assay type: cell-based, human; conditions: CD3 stimulation, 48 hours, SD282 250 μM
Description: In order to investigate changes in the signal factors related to immune cell modulation according to drug treatments in the peripheral blood cells (PBMCs) of a liver-transplanted patient, the PBMCs were treated with 250 μM of SD282 alone, 5 nM of FK506 alone, and the combination thereof, under the condition of TCR stimulation (under the CD3 stimulation). After culturing for 48 hours, the microarray analyses thereof were carried out by Macrogen, Inc.

| SMILES | IL-17+CD4+ T cells (%) / proliferation of pathogenic Th17 cells (pathogenic Th17 cells) | activity of the inflammatory cytokine IL-17 (ELISA) (pathogenic Th17 cells) | IL-17+CD4+ T cells (%) / proliferation of pathogenic Th17 cells (pathogenic Th17 cells; listed as Fk506) | activity of the inflammatory cytokine IL-17 (ELISA) (pathogenic Th17 cells; listed as Fk506) | proliferation of Treg cells (Foxp3, flow cytometry) (Foxp3 Treg cells) | proliferation of Treg cells (Foxp3, flow cytometry) (Foxp3 Treg cells; listed as Fk506) | proliferation of allogenic T cells (FIG. 13b) [1] | T cell proliferation (3H-thymidine incorporation, FIG. 1) (allogenic T cells) | T cell proliferation (flow cytometry, FIG. 2) (allogenic T cells) | T cell proliferation (FIG. 13a) ([1]; 4 days, or more of SD282 alone, compared to control group) | activity of IFN-γ (ELISA) (IL-17, IFN-γ and TNF-α) | activity of IL-17 (ELISA) (IL-17, IFN-γ and TNF-α) | activity of TNF-α (ELISA) (IL-17, IFN-γ and TNF-α) | various pathways increased in a liver-transplanted patient (KEGG) [2] |
| --- | --- | --- | --- | --- | --- | --- | --- | --- | --- | --- | --- | --- | --- | --- |
| C=CC[C@@H]1/C=C(\C)C[C@H](C)C[C@H](OC)[C@H]2O[C@@](O)(C(=O)C(=O)N3CCCC[C@H]3C(=O)O[C@H](/C(C)=C/[C@@H]3CC[C@@H](O)[C@H](OC)C3)[C@H](C)[C@@H](O)CC1=O)[C@H](C)C[C@@H]2OC [FK506, tacrolimus] | did not effectively inhibit | did not effectively inhibit | inhibited | inhibited | did not increase | significantly increased | not effective | not effective | inhibited | – | – | – | – | – |
| CCN(C(=N)NC(=N)N)c1ccc(F)cc1 [SD282] | inhibited | inhibited | – | – | significantly increased | – | significantly inhibited | significantly inhibited | inhibited | inhibited | more significantly inhibited | more significantly inhibited | more significantly inhibited | inhibited |
